Data reported in patent US20200054651A1, “COMPOSITIONS AND METHODS FOR MODULATING PPP2R1A” (The Regents of the University of California, priority 2017, published 2020).

Tests used:
[1] = biological target: T1, pure human PPP2R1A protein (Homo sapiens, UniProt P30153); experiment: Gel-based ABPP, competition against IAyne labeling; assay type: binding; conditions: 30 min at 37° C. pre-treatment, IAyne labeling
T1 construct: purchased Origene
Experimental: Gel-based ABPP methods were performed using the methods described in “Chem Biol 22(10), 1394-1405 (2015)” by Medina-Cleghorn D., et al. Recombinant pure human proteins were purchased from Origene. Pure proteins were pre-treated with DMSO, Withaferin A, or acrylamide or chloroacetamide compounds (e.g., DKM 2-90 or JNS 1-40) for 30 minutes at 37° C. in an incubation volume of PBS (50 μL), and were subsequently treated with IAyne (10 μM final concentration) for 30 minutes at room temperature. CuAAC was performed to append rhodamine-azide onto IAyne probe-labeled proteins. The samples were separated by SDS/PAGE and scanned using a ChemiDoc MP. Inhibition of target labeling was assessed by densitometry using ImageStudio Light software.

[2] = system: 231MFP breast cancer cells; experiment: 231MFP cell proliferation (Hoechst staining); assay type: cell-based; conditions: 100 μM, 48 h, 231MFP

T1 sequence (P30153 whole entry): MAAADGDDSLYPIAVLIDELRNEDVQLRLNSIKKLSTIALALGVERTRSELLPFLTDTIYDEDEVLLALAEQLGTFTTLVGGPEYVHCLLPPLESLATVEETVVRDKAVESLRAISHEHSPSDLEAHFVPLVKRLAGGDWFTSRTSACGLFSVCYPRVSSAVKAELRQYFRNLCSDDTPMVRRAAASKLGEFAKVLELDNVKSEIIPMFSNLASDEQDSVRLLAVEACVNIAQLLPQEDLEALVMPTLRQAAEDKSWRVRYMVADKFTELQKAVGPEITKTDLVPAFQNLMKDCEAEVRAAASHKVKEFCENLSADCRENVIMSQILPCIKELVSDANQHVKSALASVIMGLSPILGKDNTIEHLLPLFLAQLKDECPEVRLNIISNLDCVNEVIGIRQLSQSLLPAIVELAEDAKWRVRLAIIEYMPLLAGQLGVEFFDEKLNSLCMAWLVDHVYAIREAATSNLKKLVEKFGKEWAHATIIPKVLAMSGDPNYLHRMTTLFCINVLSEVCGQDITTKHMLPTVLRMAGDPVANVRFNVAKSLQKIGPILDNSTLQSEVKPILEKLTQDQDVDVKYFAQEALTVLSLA

Row | IC50 [1] [µM] | Compound | cell proliferation [2]
1 | 300 | O=C(CCl)Nc1ccc2c(c1)CCCC2 [JNS 1-37, 2-Chloro-N-(5,6,7,8-tetrahydronaphthalen-2-yl)acetamide] | –
2 | – | O=C(CCl)Nc1cccc2c1CCC2 [DKM 2-91] | lead compounds
